One assay addresses T1, hAChE (Homo sapiens, UniProt P22303).
T1 construct: purchased Sigma C1682
The assay can be described thus: Ellman AChE inhibition assay, recombinant hAChE. Format: biochemical. On the technique in general: Ellman's reagent forms a yellow product with free thiols.

The target in another assay is T2, Ag ace-1S (Anopheles gambiae, UniProt Q869C3).
T2 construct: encoding the entire wild type AgAChE protein (ace1, 737 amino acids); made in house; host or cells: Drosophila S2 cells (stably transfected, pMT/V5-His vector), clarified cell lysate
Nature of the assay: biochemical.

The target in the next assay is T3, Ag hmg AChE (Anopheles gambiae, UniProt Q869C3).
T3 construct: To prepare the Ag homogenate (Ag hmg) 10 Anopheles gambiae mosquitoes were combined; from tissue; host or cells: whole Anopheles gambiae mosquitoes, crude homogenate supernatant
Nature of the assay: Ellman AChE inhibition assay, Anopheles gambiae homogenate (Ag hmg). The class given is biochemical. As to conditions: for IC50: pH 7.8, 10 min preincubation; for Human/Ag IC50 ratio (selectivity for AgAChE over hAChE): range over the two AgAChE sources (Ag hmg, Ag ace-1S).

The subject of the next assay is Anopheles gambiae. Nature of the assay: Live mosquito contact toxicity, WHO filter paper assay. Format: in vivo. As to conditions: for Live Mosquito Contact Toxicity MC for 100% lethality at 24 hr: 1 hr exposure to treated filter paper.
The mark [1] stands for this setting: pH 7.8, 10 min preincubation, read-out: hAChE recomb. IC50.
Setting [2] is: WT Anopheles gambiae homogenate, read-out: Ag WT hmg IC50.
Setting [3] is: Ag WT hmg IC50, WT Anopheles gambiae homogenate.

Read-outs that look alike come from different tables or passages of the source.

T1 sequence (P22303 32-614): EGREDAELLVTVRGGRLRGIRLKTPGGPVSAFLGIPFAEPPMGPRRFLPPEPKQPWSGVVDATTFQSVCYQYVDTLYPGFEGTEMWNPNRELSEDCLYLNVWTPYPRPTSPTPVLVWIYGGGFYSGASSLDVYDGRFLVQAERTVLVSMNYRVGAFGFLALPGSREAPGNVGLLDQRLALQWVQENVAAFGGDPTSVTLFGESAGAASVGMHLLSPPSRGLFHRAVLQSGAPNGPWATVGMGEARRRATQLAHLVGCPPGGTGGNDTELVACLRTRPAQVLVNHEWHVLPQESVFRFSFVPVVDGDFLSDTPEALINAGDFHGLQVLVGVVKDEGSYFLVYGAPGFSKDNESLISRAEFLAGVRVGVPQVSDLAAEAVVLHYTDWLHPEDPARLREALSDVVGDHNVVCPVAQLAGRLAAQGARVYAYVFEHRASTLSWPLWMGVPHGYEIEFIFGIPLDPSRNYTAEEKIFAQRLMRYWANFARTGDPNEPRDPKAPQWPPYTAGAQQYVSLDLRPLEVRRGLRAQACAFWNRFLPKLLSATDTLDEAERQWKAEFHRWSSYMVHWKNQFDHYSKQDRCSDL
T2 sequence (Q869C3 39-737): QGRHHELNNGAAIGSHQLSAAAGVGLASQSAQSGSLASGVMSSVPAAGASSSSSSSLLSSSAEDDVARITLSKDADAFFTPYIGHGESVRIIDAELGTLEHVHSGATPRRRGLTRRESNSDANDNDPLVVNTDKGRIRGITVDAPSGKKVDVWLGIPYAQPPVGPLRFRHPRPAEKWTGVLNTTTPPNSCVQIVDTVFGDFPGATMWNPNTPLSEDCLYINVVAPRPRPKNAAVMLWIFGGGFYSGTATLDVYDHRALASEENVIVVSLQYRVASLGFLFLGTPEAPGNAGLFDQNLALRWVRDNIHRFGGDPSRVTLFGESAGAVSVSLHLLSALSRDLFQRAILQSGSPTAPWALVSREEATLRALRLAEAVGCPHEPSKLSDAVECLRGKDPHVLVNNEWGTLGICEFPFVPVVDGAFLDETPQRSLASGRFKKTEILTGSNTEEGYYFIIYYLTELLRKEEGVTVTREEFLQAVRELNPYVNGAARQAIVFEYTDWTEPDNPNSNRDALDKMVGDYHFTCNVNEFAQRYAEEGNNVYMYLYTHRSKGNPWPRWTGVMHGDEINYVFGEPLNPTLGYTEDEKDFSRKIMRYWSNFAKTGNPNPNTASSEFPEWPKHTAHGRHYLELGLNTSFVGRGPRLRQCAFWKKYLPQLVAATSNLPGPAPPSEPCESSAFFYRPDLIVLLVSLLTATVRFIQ
T3 sequence (Q869C3 39-737): as above

One may read the IC50 as the concentration needed to halve the response being measured. As for `CNC(=O)Oc1cccc2c1OC(C)(C)C2` [Carbofuran, reference compound], the results for the IC50 on hAChE (setting [1]), against Ag ace-1S and on Ag hmg AChE (setting [2]) were 0.061 µM, 0.049 µM and 0.022 µM, respectively.
`CCCCN(CCCC)SN(C)C(=O)Oc1cccc2c1OC(C)(C)C2` [Carbosulfan, reference compound]: the IC50 on hAChE (setting [1]) was found to be 5.92 µM; on Ag ace-1S, 10.8 µM; at Ag hmg AChE (setting [2]), 4.1 µM.
As to `CCC(CC)CSc1ccccc1OC(=O)NC` [Compound 1b, 2-(2-ethylbutylthio)phenyl-N-methylcarbamate], the “lethality at 24 h” value in the assay with Anopheles gambiae (at 11 ug/cm^2, 1 hr exposure) was 27% at 11. Further, the IC50 on hAChE stood at 3.63 µM; at Ag ace-1S it was 0.0029 µM; at Ag hmg AChE (setting [3]) it was 0.003 µM. For the same compound, on Ag hmg AChE, the “Human/Ag IC50 ratio (selectivity for AgAChE over hAChE)” value was determined as 1200 fold.
Regarding `CCCCCCNC(=O)Oc1cccc(C(C)(C)C)c1` [Compound 1c], the “lethality at 24 h” value in the assay on Anopheles gambiae (at 11 ug/cm^2, 1 hr exposure) is recorded as 13% lethal at 11. Also, the IC50 at hAChE was 0.696 µM; at Ag hmg AChE (setting [3]) it was more than 100 µM.
Consider `CC(C)NC(=O)Oc1cccc(C(C)(C)C)c1` [Compound 1d, N-isopropyl-3-tert-butylphenylcarbamate], for which the half-inhibitory concentration (IC50) was found to be 181 µM on hAChE and 538 µM against Ag hmg AChE (setting [3]).
For the compound `C#CCNC(=O)Oc1cccc(C(C)(C)C)c1` [Compound 1e, N-propargyl 3-t-butylphenyl carbamate], in the assay with Anopheles gambiae, the “Live Mosquito Contact Toxicity MC for 100% lethality at 24 hr” value is 56 ug/cm^2. Further, the IC50 came out at 0.205 µM on hAChE and 0.339 µM on Ag hmg AChE (setting [3]).
The corresponding values for `CC(C)(C)c1cccc(OC(=O)NCc2cn(Cc3ccccc3)nn2)c1` [Compound 1f, N-(1-benzyl-1H-1,2,3-triazol-4-yl)methyl 3-t-butylphenyl carbamate] are 56 ug/cm^2, more than 10 µM and more than 10 µM.
For `CN(C)C(=O)Oc1cccc(C(C)(C)C)c1` [Compound 1g], in the assay with Anopheles gambiae (at 11 ug/cm^2, 1 hr exposure), the “lethality at 24 h” value worked out at 20% lethal at 11. Moreover, the IC50 came out at 4.04 µM on hAChE and 5.94 µM on Ag hmg AChE (setting [3]).
As to `CCNC(=O)Oc1cccc(C(C)(C)C)c1` [Compound 1h], the “Live Mosquito Contact Toxicity MC for 100% lethality at 24 hr” value with Anopheles gambiae was found to be 11 ug/cm^2. The IC50 at hAChE was found to be 2.41 µM; against Ag hmg AChE (setting [3]), 4 µM.
Consider `CCC(CC)COc1ccccc1OC(=O)NC` [Compound 2b, 2-(2-ethylbutoxy)phenyl-N-methylcarbamate], for which, in the assay on Anopheles gambiae (at 11 ug/cm^2, 1 hr exposure), the “lethality at 24 h” value is recorded as 27%. In the assay on Anopheles gambiae (at 11 ug/cm^2, +PBO), the “lethality at 24 h, +PBO” value is given as 53%. In addition, the IC50 on hAChE stood at 98.8 µM; on Ag ace-1S, 0.01 µM; at Ag hmg AChE (setting [3]), 0.069 µM. Also, at Ag hmg AChE, the “Human/Ag IC50 ratio (selectivity for AgAChE over hAChE)” value was 1,400-9.900 fold.
Take `CCC(CC)C[S+]([O-])c1ccccc1OC(=O)NC` (stereo not shown) [Compound 3b, 2-(2-ethylbutylsulfinyl)phenyl-N-methylcarbamate]: in the assay on Anopheles gambiae (at 11 ug/cm^2, 1 hr exposure), the “lethality at 24 h” value worked out at 0% at 11. For the same compound, the IC50 on hAChE amounted to 55.4 µM; against Ag hmg AChE (setting [3]), 51.8 µM.
As to `CCC(C)CSc1ccccc1OC(=O)NC` (stereo not shown) [Compound 4b, 2-(2-methylbutylthio)phenyl-N-methylcarbamate], in the assay on Anopheles gambiae (at 11 ug/cm^2, 1 hr exposure), the “lethality at 24 h” value was determined as 70% at 11. The IC50 was found to be 3.54 µM at hAChE, 0.027 µM against Ag ace-1S and 0.03 µM on Ag hmg AChE (setting [3]).
As for `CNC(=O)Oc1ccccc1SC(C)C` [Compound 5b, 2-(isopropylthio)phenyl-N-methylcarbamate], the “Live Mosquito Contact Toxicity MC for 100% lethality at 24 hr” value in the assay with Anopheles gambiae turned out to be 2.8 ug/cm^2. Also, the IC50 on hAChE came out at 0.943 µM; against Ag hmg AChE (setting [3]), 0.033 µM.
Regarding `CNC(=O)Oc1ccccc1SCC(C)C` [Compound 6b, 2-(isobutylthio)phenyl-N-methylcarbamate], the “Live Mosquito Contact Toxicity MC for 100% lethality at 24 hr” value in the assay with Anopheles gambiae is 11 ug/cm^2. The IC50 worked out at 8.11 µM on hAChE and 0.109 µM at Ag hmg AChE (setting [3]). Also, the “Human/Ag IC50 ratio (selectivity for AgAChE over hAChE)” value on Ag hmg AChE was found to be 74 fold.
Consider `CNC(=O)Oc1ccccc1SCC(C)(C)C` [Compound 7b, 2-(neopentylthio)phenyl-N-methylcarbamate], for which the “lethality at 24 h” value in the assay on Anopheles gambiae (at 11 ug/cm^2, 1 hr exposure) came to 33% at 11. Besides, the figures for the IC50 on hAChE, at Ag ace-1S and at Ag hmg AChE (setting [3]) were 13.9 µM, 0.287 µM and 0.732 µM, respectively.
For `C=C(C)CSc1ccccc1OC(=O)NC` [Compound 8b, 2-(2-methylallylthio)phenyl-N-methylcarbamate], the “Live Mosquito Contact Toxicity MC for 100% lethality at 24 hr” value in the assay with Anopheles gambiae was 2.8 ug/cm^2. Also, the IC50 at hAChE was found to be 9.55 µM; at Ag ace-1S, 0.165 µM; at Ag hmg AChE (setting [3]), 0.124 µM.
As for `C=C(C)CSc1ccccc1OC(=O)NCC` [Compound 8c, 2-(3-thio-2-methylpropenyl)phenyl-N-ethylcarbamate], the “lethality at 24 h” value in the assay on Anopheles gambiae (at 11 ug/cm^2, 1 hr exposure) is “None at 11”. In addition, the figures for the IC50 at hAChE and against Ag hmg AChE (setting [3]) were 54.2 µM and 13 µM, respectively.
In the case of `C=C(C)CSc1ccccc1OC(=O)NCCCCCC` [Compound 8d, 2-(3-thio-2-methylpropenyl)phenyl-N-hexylcarbamate], the “lethality at 24 h” value with Anopheles gambiae (at 11 ug/cm^2, 1 hr exposure) is on record as “None at 11”. Further, the IC50 is 6.86 µM at hAChE and more than 100 µM at Ag hmg AChE (setting [3]).
For the compound `C=C(C)CSc1ccccc1OC(=O)N(C)C` [Compound 8e, 2-(3-thio-2-methylpropenyl)phenyl-N,N-dimethylcarbamate], in the assay with Anopheles gambiae (at 11 ug/cm^2, 1 hr exposure), the “lethality at 24 h” value is recorded as “None at 11”. Besides, the IC50 at hAChE was 10.3 µM; against Ag hmg AChE (setting [3]), 5.82 µM.
`CNC(=O)Oc1ccccc1SCC1CCCCC1` [Compound 9b, 2-(cyclohexylmethylthio)phenyl-N-methylcarbamate]: the IC50 turned out to be 10.6 µM at hAChE and 17.5 µM at Ag hmg AChE (setting [3]).
Regarding `CNC(=O)Oc1ccccc1OCC1CCCCC1` [Compound 10b, 2-(cyclohexylmethoxy)phenyl-N-methylcarbamate], the IC50 on hAChE and against Ag hmg AChE (setting [3]) was more than 100 µM throughout.
Turning to `CNC(=O)Oc1ccccc1SCC1CCCC1` [Compound 11b, 2-(cyclopentylmethylthio)phenyl-N-methylcarbamate], the figures for the 50% inhibitory concentration (IC50) on hAChE, against Ag ace-1S and at Ag hmg AChE (setting [3]) were 6.88 µM, 0.391 µM and 1.07 µM, respectively.
With `CNC(=O)Oc1ccccc1OCC1CCCC1` [Compound 12b, 2-(cyclopentylmethoxy)phenyl-N-methylcarbamate], the concentration for half-maximal inhibition (IC50) on hAChE was more than 100 µM; on Ag hmg AChE (setting [3]) it was 24.6 µM.
Consider `CNC(=O)Oc1cccc(-c2cn(Cc3ccccc3)nn2)c1` [Compound 13a, N-methyl 3-(1-benzyl-1H-1,2,3-triazol-4-yl)phenyl carbamate], for which the “lethality at 24 h” value with Anopheles gambiae (at 11 ug/cm^2, 1 hr exposure) is “None at 11”. Besides, the results for the IC50 on hAChE and at Ag hmg AChE (setting [3]) were more than 100 µM and 336 µM, respectively.
Turning to `CNC(=O)Oc1ccccc1OCC(C)C` [Compound 13b, 2-isobutoxyphenyl-N-methylcarbamate], the “lethality at 24 h” value with Anopheles gambiae (at 2.8 ug/cm^2, 1 hr exposure) is given as 100% at 2.8. The concentration for half-maximal inhibition (IC50) on hAChE worked out at 66.9 µM; on Ag ace-1S it was 0.65 µM; against Ag hmg AChE (setting [3]), 2.06 µM.
Regarding `C=C(Cl)CSc1ccccc1OC(=O)NC` [Compound 14b, 2-(2-chloroallylthio)phenyl-N-methylcarbamate], the “Live Mosquito Contact Toxicity MC for 100% lethality at 24 hr” value with Anopheles gambiae worked out at 11 ug/cm^2. Also, the 50% inhibitory concentration (IC50) amounted to 3.1 µM on hAChE, 0.264 µM on Ag ace-1S and 0.114 µM against Ag hmg AChE (setting [3]).
With `C=C(Br)CSc1ccccc1OC(=O)NC` [Compound 15b, 2-(2-bromoallylthio)phenyl-N-methylcarbamate], the “lethality at 24 h” value in the assay with Anopheles gambiae (at 56 ug/cm^2, 1 hr exposure) turned out to be 93% lethal at 56. The IC50 is 1.66 µM on hAChE, 0.173 µM on Ag ace-1S and 0.248 µM at Ag hmg AChE (setting [3]).
Turning to `C=CCSc1ccccc1OC(=O)NC` [Compound 16b, 2-(allylthio)phenyl-N-methylcarbamate], the “Live Mosquito Contact Toxicity MC for 100% lethality at 24 hr” value in the assay on Anopheles gambiae was determined as 5.6 ug/cm^2. Besides, the IC50 at hAChE was found to be 1.58 µM; on Ag ace-1S it was 0.036 µM; against Ag hmg AChE (setting [3]) it was 0.156 µM.
Turning to `C/C=C/CSc1ccccc1OC(=O)NC` [Compound 17b, (E)-2-(but-2-enylthio)phenyl-N-methylcarbamate], in the assay with Anopheles gambiae (at 5.6 ug/cm^2, 1 hr exposure), the “lethality at 24 h” value stood at 93% lethal at 5.6. The figures for the IC50 at hAChE, at Ag ace-1S and against Ag hmg AChE (setting [3]) were 0.494 µM, 0.068 µM and 0.057 µM, respectively.
As for `CNC(=O)Oc1ccccc1SCC=C(C)C` [Compound 18b, 2-(3-methylbut-2-enylthio)phenyl-N-methylcarbamate], the “Live Mosquito Contact Toxicity MC for 100% lethality at 24 hr” value with Anopheles gambiae came out at 56 ug/cm^2. Moreover, the IC50 at hAChE is 2.7 µM; on Ag ace-1S, 0.411 µM; at Ag hmg AChE (setting [3]), 1.18 µM.
`CNC(=O)Oc1ccccc1SCc1ccccc1` [Compound 19b, 2-(benzylthio)phenyl-N-methylcarbamate]: the IC50 at hAChE was 15.7 µM; on Ag ace-1S, 3.84 µM; at Ag hmg AChE (setting [3]), 6.9 µM.
In the case of `C=C(C)COc1ccccc1OC(=O)NC` [Compound 20b, 2-(2-methylallyloxy)phenyl-N-methylcarbamate], the “lethality at 24 h” value with Anopheles gambiae (at 11 ug/cm^2, 1 hr exposure) turned out to be 93% lethality at 11. Also, the values for the IC50 at hAChE and on Ag hmg AChE (setting [3]) were 68.7 µM and 1.51 µM, respectively.
`C=C(Br)COc1ccccc1OC(=O)NC` [Compound 21b, 2-(2-bromoallyloxy)phenyl-N-methylcarbamate]: the “Live Mosquito Contact Toxicity MC for 100% lethality at 24 hr” value in the assay with Anopheles gambiae worked out at 11 ug/cm^2. For the same compound, the figures for the 50% inhibitory concentration (IC50) at hAChE, on Ag ace-1S and against Ag hmg AChE (setting [3]) were 31.9 µM, 0.741 µM and 1.07 µM, respectively.
Regarding “N-methyl-3-fluoro-5-trifluoromethylphenylcarbamate [Compound 12a]”, the “lethality at 24 h” value in the assay with Anopheles gambiae (at 11 ug/cm^2, 1 hr exposure) is “None at 11”. The IC50 at hAChE (setting [1]) was more than 100 µM; at Ag ace-1S (recombinant Anopheles gambiae AChE, WT (susceptible) strain, read-out: Ag ace-1S IC50) it was 78.5 µM; on Ag hmg AChE (setting [2]), more than 100 µM.

Source of the values: patent publication US8618162B2 (priority 2007, dated 2013).
